Assay results: US6686361B2, “R-6-hydroxy-buspirone” (Bristol-Myers Squibb Company, priority 2001, dated 2004)

Tests used:
[1] = test system: rat pup ultrasonic vocalizations; assay: Rat pup isolation-induced ultrasonic vocalization test; assay type: in vivo; conditions: rat pups; for anxiolytic activity (ultrasonic vocalizations): 0.3 and 1 mg/kg s.c.
Experimental: Harlan Sprague-Dawley rat pups (male and female) were housed in polycarbonate cages with the dam until 9-11 days old. Thirty minutes before testing, pups were removed from the dam, placed into a new cage with a small amount of home bedding and brought into the lab and placed under a light to maintain body temperature at 37° C. Pups were then weighed, sexed, marked and returned to the litter group until behavioral assessment. Testing took place in a Plexiglas recording chamber that contained a metal plate maintained at (18-20° C.) with a 5×5 cm grid drawn on the plate. A microphone was suspended 10 cm above the plate to record ultrasonic vocalizations. Ultrasonic calls were recorded using the Noldus UltraVox system providing online analysis of the frequency and duration of calls. The number of grid cells entered by the pup was also collected by visual scoring. […] Immediately following the collection of the baseline measures, pups were injected with vehicle or drug subcutaneously at the nape of the neck and returned to its littermates. Thirty minutes later, pups were retested on each of the dependent measures (vocalization and grid cell crossings) to assess drug effects. Unless otherwise specified, each pup was used only once. Baseline differences and percent change from baseline for the frequency of ultrasonic vocalizations and grid cell crossings were analyzed using a one-way ANOVA. Bonferroni/Dunn post hoc comparisons were performed to assess the acute drug effects with vehicle control. Log-probit analysis was used to estimate the dose (milligrams per kilogram) of each agonist predicted to inhibit isolation-induced ultrasonic vocalizations by 50% (ID50). All comparison were made with an experimental type I error rate (α) set at 0.05.
Doses for each drug were administered in an irregular order across several litters. R-6-hydroxy-buspirone and racemic 6-hydroxy-buspirone were dissolved in physiological saline (0.9% NaCl; vehicle). All injections were administered subcutaneously in a volume of 10 ml/kg. Doses of the drug refer to weight of the salt.

[2] = biological target: T1, human 5-HT1A receptor (Homo sapiens, UniProt P08908); conditions: preclinical studies, background; cited from earlier work
T1 construct: expressed in transfected cells; host or cells: HEK293
T1 sequence (P08908 1-422): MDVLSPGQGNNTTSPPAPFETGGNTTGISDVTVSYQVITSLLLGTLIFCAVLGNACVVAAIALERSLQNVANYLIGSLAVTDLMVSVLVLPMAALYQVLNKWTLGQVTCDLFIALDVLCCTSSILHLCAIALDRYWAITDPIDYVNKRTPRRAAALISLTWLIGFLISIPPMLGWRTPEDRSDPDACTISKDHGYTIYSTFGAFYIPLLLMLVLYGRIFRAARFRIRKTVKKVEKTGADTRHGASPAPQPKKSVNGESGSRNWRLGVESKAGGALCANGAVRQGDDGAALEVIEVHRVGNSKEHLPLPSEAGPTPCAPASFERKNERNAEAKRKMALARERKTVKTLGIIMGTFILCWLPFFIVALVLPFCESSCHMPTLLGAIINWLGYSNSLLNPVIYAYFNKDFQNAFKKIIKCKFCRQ

[3] = test system: rat pup ultrasonic vocalizations; conditions: functional testing, background; cited from earlier work
[4] = biological target: T1, human 5-HT1A receptor; assay: 5-HT1A receptor binding assay; conditions: human 5-HT1A receptor expressed in HEK293 cells, 3H-8-OH-DPAT
Experimental: Membranes are prepared for binding using the human 5-HT1 A receptor expressed in HEK293 cells. Cells are collected and ruptured using a dounce homogenizer. The cells are spun at 18000×g for 10 minutes and the pellet is resuspended in assay buffer, frozen in liquid nitrogen and kept at −80° C. until the day of the assay.
A total of 30 ug protein is used per well. The assay is carried out in 96-deep-well plates. The assay buffer is 50 mM HEPES containing 2.5 mM MgCl2 and 2 mM EGTA. The membrane preparation is incubated at 25° C. for 60 minutes with 0.1 nM to 1000 nM test compound and 1 nM 3H-8-OH-DPAT. […] serotonin serves as blocking agent to determine non-specific binding. The reaction is terminated by the addition of 1 ml of ice cold 50 mM HEPES buffer and rapid filtration through a Brandel Cell Harvester using Whatman GF/B filters. The filter pads are counted in an LKB Trilux liquid scintillation counter. IC50 values are determined using non-linear regression by Excel-fit.

[5] = biological target: D2(h) (Homo sapiens, UniProt P14416); assay: Receptor binding, D2(h)
Sequence of D2(h) (P14416 whole entry): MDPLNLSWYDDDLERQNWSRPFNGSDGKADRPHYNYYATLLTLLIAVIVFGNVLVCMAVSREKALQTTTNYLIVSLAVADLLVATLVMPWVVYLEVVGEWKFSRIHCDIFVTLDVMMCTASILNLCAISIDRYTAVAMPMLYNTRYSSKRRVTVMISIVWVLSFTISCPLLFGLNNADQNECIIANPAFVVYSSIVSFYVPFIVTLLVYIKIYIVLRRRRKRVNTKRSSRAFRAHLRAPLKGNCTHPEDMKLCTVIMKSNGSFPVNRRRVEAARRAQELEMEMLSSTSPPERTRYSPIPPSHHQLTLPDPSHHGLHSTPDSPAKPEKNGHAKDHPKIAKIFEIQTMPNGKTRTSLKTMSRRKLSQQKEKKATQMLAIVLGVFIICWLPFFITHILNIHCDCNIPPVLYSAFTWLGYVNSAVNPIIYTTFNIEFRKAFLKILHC

SMILES	anxiolytic activity (ultrasonic vocalizations) [1]	animal movement, measured by crossing grid boundary lines ([1]; compared to animals dosed with the single enantiomer)	affinity for the human 5-HT1A receptor [2]	anxiolytic response in the rat pup ultrasonic vocalization test [3]	Ki [4] [nM]	Ki [5] [nM]
O=C1CC2(CCCC2)C(O)C(=O)N1CCCCN1CCN(c2ncccn2)CC1 (racemic) [6-hydroxy-buspirone]	Statistically significant anxiolytic activity	appeared to be reduced	strong affinity	dose-dependent anxiolytic response		
O=C1CC2(CCCC2)[C@@H](O)C(=O)N1CCCCN1CCN(c2ncccn2)CC1 [R-6-hydroxy-buspirone]	Statistically significant anxiolytic activity				14	2870
O=C1CC2(CCCC2)[C@H](O)C(=O)N1CCCCN1CCN(c2ncccn2)CC1 [S-6-hydroxy-buspirone]					24	1300
